{"source": "patent US20230137943A1", "about": "“PHOTOPROXIMITY PROFILING OF PROTEIN-PROTEIN INTERACTIONS IN CELLS” (The University of Chicago, priority 2019, published 2023)", "target": "T1, SNAP-FLAG/α-FLAG antibody complex (Homo sapiens, UniProt P16455, A127T/A154D/C150Q/C62A/E30R/G131K/G132T/G153L/K125A/K32I/L33F/M134L/N157G/Q115S/Q116H/R128A/R135S/S151G/S152D/S159E)", "T1 construct": "host or cells: clarified lysate of HEK293T cells transiently or stably expressing SnapFlag", "T1 sequence (P16455 1-182 E30R/K32I/L33F/C62A/Q115S/Q116H/K125A/A127T/R128A/G131K/G132T/M134L/R135S/C150Q/S151G/S152D/G153L/A154D/N157G/S159E limits assumed)": "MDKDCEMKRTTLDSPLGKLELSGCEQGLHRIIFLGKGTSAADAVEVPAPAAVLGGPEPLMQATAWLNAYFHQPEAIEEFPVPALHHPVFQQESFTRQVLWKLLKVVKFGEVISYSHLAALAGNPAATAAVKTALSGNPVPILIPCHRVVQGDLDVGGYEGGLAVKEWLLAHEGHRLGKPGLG", "assay": "Proximity-labeling assay in cell lysate (anti-biotin / anti-mouse Western blot)", "format": "biochemical", "details": "500 nM probe; for Proximal labeling of heavy and light chains upon irradiation: 365 nm light 10 minutes (FIG. 4C, FIG. 12B)", "procedure": "Proximity-labeling assays: Clarified cell lysate from HEK293T cells either transiently (see FIG. 4B) or stably (see FIG. 4C) expressing SNAP-Tag (NEB #N9183S; New England Biolabs, Ipswich, Mass., United States of America) or SnapFlag was normalized to 1 mg/mL and 250 μL aliquots incubated in a microcentrifuge tube with either 500 nM of PP1. PP2, or DMSO for 1 hour at 37° C. Washed anti-FLAG M2 affinity gel, 40 μL of a 50% slurry, was transferred to each reaction in 750 μL of DPBS and the resultant suspension left to rotate overnight at 4° C. (Sigma #A2220; Sigma-Aldrich, St. Louis, Mo., United States of America). Samples were then spun down at 4000×g, supernatant aspirated, and the resin washed with 1M urea in DPBS (1 mL×8) followed by DPBS (1 mL). After being resuspended in 100 μL of DPBS, the samples were placed on ice where they were irradiated with 365 nm light for 10 minutes (SPECTROLINKER™ XL-1500a UV crosslinker, Spectronics Corporation, Westbury, N.Y., United States of America). Once irradiated, the beads were washed with 100 mM pH 3.5 glycine buffer (100 μL×2) and DPBS (1 mL). To elute the remaining SNAP-FLAG and resin-bound FLAG-antibody the beads were boiled for 5 minutes at 95° C. in 20 μL 4×-loading buffer containing 8% SDS and 400 mM DTT. After which, 60 μL of DPBS was added and the suspension boiled at 95° C. for an additional 5 minutes. The samples were then run on SDS-PAGE gel and transferred to nitrocellulose where they were stained with anti-mouse IR dye (Li-cor #926-68072; Li-cor Biosciences, Lincoln, Nebr., United States of America) and streptavidin IR dye (Li-cor #926-32230; Li-cor Biosciences, Lincoln, Nebr., United States of America). Bands corresponding to biotinylated proteins and the FLAG antibody were visualized using an Odyssey infrared imager (Li-cor Biosciences, Lincoln, Nebr., United States of America).\nTo study if proximal protein interactors could be labeled in response to the dual photoactivation of PP1 in vitro, the interaction between SNAP-FLAG protein and an α-FLAG monoclonal antibody (mAb) was examined in cell lysate. In this assay, proximal biotinylation of both heavy and light chains of the antibody was expected, as well as self-labeling of the SNAP-FLAG protein, under conditions where the protein complex is formed and the PP1 probe is photoactivated. To test this hypothesis in the presence and absence of the protein-protein complex, SNAP protein that contained or lacked the FLAG epitope was treated with PP1 probe, followed by incubation with α-FLAG mAb, bead-based pulldown of the complexes, and subsequent photoactivation. […] The requirement for photoactivation of PP1, as well as a related probe PP2 (see FIG. 6) was tested by forming the SNAP-FLAG/α-FLAG complexes, and then comparing protein biotinylation with or without irradiation.\nTo study if proximal protein interactors could be labeled in response to the dual photoactivation of AC1 (see FIG. 12A) in vitro, the interaction between SNAP-FLAG protein and an α-FLAG monoclonal antibody (mAb) was examined in cell lysate. Briefly, 250 μL aliquots of cell lysate (HEK293T, SNAP-Flag) was incubated in a microcentrifuge tube with either 500 nM of photoprobe, or DMSO for 1 hour at 37° C. Washed anti-FLAG M2 affinity gel, 40 μL of a 50% slurry, was transferred to each reaction in 750 μL of DPBS and the resultant suspension left to rotate overnight at 4° C. (Sigma #A2220; Sigma-Aldrich, St. Louis, Mo., United States of America). Samples were then spun down at 4000×g, supernatant aspirated, and the resin washed with 1M urea in DPBS (1 mL×8) followed by DPBS (1 mL). After being resuspended in 250 μL of DPBS, the +UV samples were placed on ice where they were irradiated with 365 nm light for 10 minutes (SPECTROLINKER™ XL-1500a UV crosslinker, Spectronics Corporation, Westbury, N.Y., United States of America). Once irradiated, the beads were washed with 1 M Urea (1 mL×2) and DPBS (1 mL×2). […]", "data": [{"smiles": "COc1cc(COC(=O)NC(CCCCNC(=O)CCC2(C)N=N2)C(=O)NCCCCC2SCC3NC(=O)NC32)c([N+](=O)[O-])cc1OCCCC(=O)NCc1ccc(COc2nc(N)nc3[nH]cnc23)cc1", "note": "(centres unmarked) [AC1]", "values": [{"measurement": "Proximal labeling of heavy and light chains upon irradiation", "result": "labels a proximal protein binding partner"}]}, {"smiles": "COc1cc(C(C)OC(=O)NC(CCCCNC(=O)CCC2(C)N=N2)C(=O)NCCCCCNC(=O)CCCCC2SCC3NC(=O)NC32)c([N+](=O)[O-])cc1OCCCC(=O)NCc1ccc(COc2nc(N)nc3[nH]cnc23)cc1", "note": "(centres unmarked) [PP1]", "values": [{"measurement": "Proximal labeling of heavy and light chains upon irradiation", "result": "a discrete biotinylated band was formed on both heavy and light chains"}, {"measurement": "Biotinylation of α-FLAG antibody chains with SNAP-FLAG protein", "setting": "FLAG epitope present, 365 nm 10 minutes (FIG. 4B)", "result": "robust biotinylation of both heavy and light chain fragments"}, {"measurement": "Biotinylation with SNAP protein that lacked the FLAG sequence", "setting": "no FLAG epitope, 365 nm 10 minutes (FIG. 4B)", "result": "no protein-biotinylation"}, {"measurement": "Proximal labeling of heavy/light chain without irradiation", "setting": "not exposed to 365 nm light (FIG. 4C)", "result": "No proximal labeling"}]}]}
